Assay results taken from US20260356817A1, “AMINOPYRIMIDINE AND AMINOTRIAZINE DERIVATIVES AS MYC PROTEIN MODULATORS” (Sanford Burnham Prebys Medical Discovery Institute, priority 2022, published 2026).
Read-outs that look alike come from different tables or passages of the source.

System: Myc
Assay: Myc inhibition assay: Myc expression per cell by anti-Myc immunofluorescence, high-content imaging
Format: cell-based, human (patient-derived medulloblastoma xenograft cells)
Details: medulloblastoma PDX cells, 4 h
Procedure, shortened: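 Cells from Myc-driven medulloblastoma patient-derived orthotopic xenografts, propagated only in NSG mouse cerebellum, were dissociated and plated in serum-free medium. After overnight recovery, compounds were applied for 4 hours; cells were then fixed, stained for Myc and DAPI, and per-cell Myc quantified by high-content imaging to derive IC50.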

[1] = Table 1, read-out: IC50 (Myc inhibition)
[2] = Table 2, read-out: MYC Inhibition IC50

SMILES: COc1cc(-c2ccnc(Nc3cccnc3)n2)ccn1 [Compound 189, 4-(2-methoxypyridin-4-yl)-N-(pyridin-3-yl)pyrimidin-2-amine]
- IC50 [1]: 1 to 10 µM
- IC50 [2]: 1 to 10 µM

SMILES: Oc1cc(-c2ccnc(Nc3ccncc3)n2)ccn1 [Compound 190, 4-(2-(pyridin-4-ylamino)pyrimidin-4-yl)pyridin-2-ol]
- IC50 [1]: 1 to 10 µM
- IC50 [2]: 1 to 10 µM

SMILES: COc1cccc(Nc2nccc(-c3ccnc(O)c3)n2)c1 [Compound 191, 4-(2-((3-methoxyphenyl)amino)pyrimidin-4-yl)pyridin-2-ol]
- IC50 [1]: 1 to 10 µM
- IC50 [2]: 1 to 10 µM

SMILES: COc1cccc(Nc2nccc(-c3ccnc(OC)c3)n2)c1 [Compound 192, N-(3-methoxyphenyl)-4-(2-methoxypyridin-4-yl)pyrimidin-2-amine]
- IC50 [1]: 1 to 10 µM
- IC50 [2]: 1 to 10 µM

SMILES: COc1ccnc(-c2ccnc(Nc3cccc(F)c3)n2)c1 [Compound 193, N-(3-fluorophenyl)-4-(4-methoxypyridin-2-yl)pyrimidin-2-amine]
- IC50 [1]: 10 to 100 µM
- IC50 [2]: 10 to 100 µM

SMILES: Oc1ccc(-c2ccnc(Nc3cccc(F)c3)n2)cc1 [Compound 194, 4-(2-((3-fluorophenyl)amino)pyrimidin-4-yl)phenol]
- IC50 [1]: 1 to 10 µM
- IC50 [2]: 1 to 10 µM

SMILES: COc1cc(-c2ccnc(Nc3ncccn3)n2)ccn1 [Compound 195, 4-(2-methoxypyridin-4-yl)-N-(pyrimidin-2-yl)pyrimidin-2-amine]
- IC50 [1]: 10 to 100 µM
- IC50 [2]: 10 to 100 µM

SMILES: O=C(O)c1cccc(Nc2nccc(-c3ccnc(O)c3)n2)c1 [Compound 196, 3-((4-(2-hydroxypyridin-4-yl)pyrimidin-2-yl)amino)benzoic acid]
- IC50 [1]: 10 to 100 µM
- IC50 [2]: 10 to 100 µM

SMILES: COc1cc(-c2ccnc(Nc3ccncc3)n2)ccn1 [Compound 197, 4-(2-methoxypyridin-4-yl)-N-(pyridin-4-yl)pyrimidin-2-amine]
- IC50 [1]: 1 to 10 µM
- IC50 [2]: 1 to 10 µM

SMILES: COc1cc(-c2ccnc(Nc3cccc(C(N)=O)c3)n2)ccn1 [Compound 198, 3-((4-(2-methoxypyridin-4-yl)pyrimidin-2-yl)amino)benzamide]
- IC50 [1]: 1 to 10 µM
- IC50 [2]: 1 to 10 µM

SMILES: Fc1cccc(Nc2nccc(-c3ccc4[nH]cnc4c3)n2)c1 [Compound 199, 4-(1H-benzo[d]imidazol-5-yl)-N-(3-fluorophenyl)pyrimidin-2-amine]
- IC50 [1]: < 0.2 µM
- IC50 [2]: < 0.2 µM

SMILES: Oc1cncc(-c2ccnc(Nc3cccc(F)c3)n2)c1 [Compound 200, 5-(2-((3-fluorophenyl)amino)pyrimidin-4-yl)pyridin-3-ol]
- IC50 [1]: 1 to 10 µM
- IC50 [2]: 1 to 10 µM

SMILES: Oc1cncc(-c2ccnc(Nc3cccc(C(F)(F)F)c3)n2)c1 [Compound 201, 5-(2-((3-(trifluoromethyl)phenyl)amino)pyrimidin-4-yl)pyridin-3-ol]
- IC50 [1]: 1 to 10 µM
- IC50 [2]: 1 to 10 µM

SMILES: Fc1cccc(Nc2nccc(-c3ccc4[nH]ccc4c3)n2)c1 [Compound 202, N-(3-fluorophenyl)-4-(1H-indol-5-yl)pyrimidin-2-amine]
- IC50 [1]: 10 to 100 µM
- IC50 [2]: 10 to 100 µM

SMILES: COc1cncc(-c2ccnc(Nc3cccc(F)c3)n2)c1 [Compound 203, N-(3-fluorophenyl)-4-(5-methoxypyridin-3-yl)pyrimidin-2-amine]
- IC50 [1]: 0.2 to 1 µM
- IC50 [2]: 0.2 to 1 µM

SMILES: COc1cncc(-c2ccnc(Nc3cccc(C(F)(F)F)c3)n2)c1 [Compound 204, 4-(5-methoxypyridin-3-yl)-N-(3-(trifluoromethyl)phenyl)pyrimidin-2-amine]
- IC50 [1]: 0.2 to 1 µM
- IC50 [2]: 0.2 to 1 µM

SMILES: Oc1cc(-c2ccnc(Nc3cccc(F)c3F)n2)ccn1 [Compound 205, 4-(2-((2,3-difluorophenyl)amino)pyrimidin-4-yl)pyridin-2-ol]
- IC50 [1]: 1 to 10 µM
- IC50 [2]: 1 to 10 µM

SMILES: COc1cc(-c2ccnc(Nc3cccc(F)c3F)n2)ccn1 [Compound 206, N-(2,3-difluorophenyl)-4-(2-methoxypyridin-4-yl)pyrimidin-2-amine]
- IC50 [1]: 10 to 100 µM
- IC50 [2]: 10 to 100 µM

SMILES: Oc1cc(-c2ccnc(Nc3ccccc3F)n2)ccn1 [Compound 207, 4-(2-((2-fluorophenyl)amino)pyrimidin-4-yl)pyridin-2-ol]
- IC50 [1]: 10 to 100 µM
- IC50 [2]: 10 to 100 µM

SMILES: COc1cc(-c2ccnc(Nc3ccccc3F)n2)ccn1 [Compound 208, N-(2-fluorophenyl)-4-(2-methoxypyridin-4-yl)pyrimidin-2-amine]
- IC50 [1]: 10 to 100 µM
- IC50 [2]: 10 to 100 µM

SMILES: Oc1cc(-c2ccnc(Nc3ccc(F)c(F)c3)n2)ccn1 [Compound 209, 4-(2-((3,4-difluorophenyl)amino)pyrimidin-4-yl)pyridin-2-ol]
- IC50 [1]: 1 to 10 µM
- IC50 [2]: 1 to 10 µM

SMILES: COc1cc(-c2ccnc(Nc3ccc(F)c(F)c3)n2)ccn1 [Compound 210, N-(3,4-difluorophenyl)-4-(2-methoxypyridin-4-yl)pyrimidin-2-amine]
- IC50 [1]: 1 to 10 µM
- IC50 [2]: 1 to 10 µM

SMILES: Oc1ccc(-c2ccnc(Nc3cccc(C(F)(F)F)c3)n2)cn1 [Compound 211, 5-(2-((3-(trifluoromethyl)phenyl)amino)pyrimidin-4-yl)pyridin-2-ol]
- IC50 [1]: 0.2 to 1 µM
- IC50 [2]: 0.2 to 1 µM

SMILES: COc1ccc(-c2ccnc(Nc3cccc(C(F)(F)F)c3)n2)cn1 [Compound 212, 4-(6-methoxypyridin-3-yl)-N-(3-(trifluoromethyl)phenyl)pyrimidin-2-amine]
- IC50 [1]: 1 to 10 µM
- IC50 [2]: 1 to 10 µM

SMILES: Oc1ccc(-c2ccnc(Nc3cccc(F)c3)n2)cn1 [Compound 213, 5-(2-((3-fluorophenyl)amino)pyrimidin-4-yl)pyridin-2-ol]
- IC50 [1]: 1 to 10 µM
- IC50 [2]: 1 to 10 µM

SMILES: COc1ccc(-c2ccnc(Nc3cccc(F)c3)n2)cn1 [Compound 214, N-(3-fluorophenyl)-4-(6-methoxypyridin-3-yl)pyrimidin-2-amine]
- IC50 [1]: 10 to 100 µM
- IC50 [2]: 10 to 100 µM

SMILES: CN(c1ccccc1)c1ncnc(-c2ccnc(O)c2)n1 [Compound 215, 4-(4-(methyl(phenyl)amino)-1,3,5-triazin-2-yl)pyridin-2-ol]
- IC50 [1]: 10 to 100 µM
- IC50 [2]: 10 to 100 µM

SMILES: COc1cc(-c2ncnc(N(C)c3ccccc3)n2)ccn1 [Compound 216, 4-(2-methoxypyridin-4-yl)-N-methyl-N-phenyl-1,3,5-triazin-2-amine]
- IC50 [1]: 10 to 100 µM
- IC50 [2]: 10 to 100 µM

SMILES: COc1ccnc(-c2ccnc(Nc3ccccc3)n2)c1 [Compound 217, 4-(4-methoxypyridin-2-yl)-N-phenylpyrimidin-2-amine]
- IC50 [1]: 10 to 100 µM
- IC50 [2]: 10 to 100 µM

SMILES: CN(c1ccccc1)c1nccc(-c2cncc(O)c2)n1 [Compound 218, 5-(2-(methyl(phenyl)amino)pyrimidin-4-yl)pyridin-3-ol]
- IC50 [1]: 10 to 100 µM
- IC50 [2]: 10 to 100 µM

SMILES: Oc1cncc(-c2ccnc(Nc3ccccc3)n2)c1 [Compound 219, 5-(2-(phenylamino)pyrimidin-4-yl)pyridin-3-ol]
- IC50 [1]: 1 to 10 µM
- IC50 [2]: 1 to 10 µM

SMILES: CN(c1cccc(C(F)(F)F)c1)c1nccc(-c2ccnc(O)c2)n1 [Compound 220, 4-(2-(methyl (3-(trifluoromethyl)phenyl)amino)pyrimidin-4-yl)pyridin-2-ol]
- IC50 [1]: 10 to 100 µM
- IC50 [2]: 10 to 100 µM

SMILES: CN(c1ccccc1)c1nccc(-c2ccnc(O)c2)n1 [Compound 221, 4-(2-(methyl(phenyl)amino)pyrimidin-4-yl)pyridin-2-ol]
- IC50 [1]: 10 to 100 µM
- IC50 [2]: 10 to 100 µM

SMILES: CN(c1ccccc1)c1nccc(-c2ccc(O)nc2)n1 [Compound 222, 5-(2-(methyl(phenyl)amino)pyrimidin-4-yl)pyridin-2-ol]
- IC50 [1]: 10 to 100 µM
- IC50 [2]: 10 to 100 µM

SMILES: COc1ccc(-c2ccnc(N(C)c3ccccc3)n2)cn1 [Compound 223, 4-(6-methoxypyridin-3-yl)-N-methyl-N-phenylpyrimidin-2-amine]
- IC50 [1]: 10 to 100 µM
- IC50 [2]: 10 to 100 µM

SMILES: COc1cncc(-c2ccnc(N(C)c3ccccc3)n2)c1 [Compound 224, 4-(5-methoxypyridin-3-yl)-N-methyl-N-phenylpyrimidin-2-amine]
- IC50 [1]: 10 to 100 µM
- IC50 [2]: 10 to 100 µM

SMILES: CN(c1ccccc1)c1nccc(-c2cccc(O)n2)n1 [Compound 225, 6-(2-(methyl(phenyl)amino)pyrimidin-4-yl)pyridin-2-ol]
- IC50 [1]: 10 to 100 µM
- IC50 [2]: 10 to 100 µM

SMILES: Oc1cccc(-c2ccnc(Nc3ccccc3)n2)n1 [Compound 226, 6-(2-(phenylamino)pyrimidin-4-yl)pyridin-2-ol]
- IC50 [1]: 10 to 100 µM
- IC50 [2]: 10 to 100 µM

SMILES: COc1cccc(-c2ccnc(N(C)c3ccccc3)n2)n1 [Compound 227, 4-(6-methoxypyridin-2-yl)-N-methyl-N-phenylpyrimidin-2-amine]
- IC50 [1]: 10 to 100 µM
- IC50 [2]: 10 to 100 µM

SMILES: COc1cncc(-c2ccnc(Nc3ccccc3)n2)c1 [Compound 228, 4-(5-methoxypyridin-3-yl)-N-phenylpyrimidin-2-amine]
- IC50 [1]: 1 to 10 µM
- IC50 [2]: 1 to 10 µM

SMILES: Oc1cc(-c2ccnc(Cc3ccccc3)n2)ccn1 [Compound 229, 4-(2-Benzylpyrimidin-4-yl)pyridin-2-ol]
- IC50 [1]: 10 to 100 µM
- IC50 [2]: 10 to 100 µM

SMILES: COc1cc(-c2ccnc(Cc3ccccc3)n2)ccn1 [Compound 230, 2-Benzyl-4-(2-methoxypyridin-4-yl)pyrimidine]
- IC50 [1]: 10 to 100 µM
- IC50 [2]: 10 to 100 µM

SMILES: Oc1cc(-c2ccnc(Sc3ccccc3)n2)ccn1 [Compound 231, 4-(2-(phenylthio)pyrimidin-4-yl)pyridin-2-ol]
- IC50 [1]: 10 to 100 µM
- IC50 [2]: 10 to 100 µM

SMILES: Oc1cc(-c2ccnc(Oc3ccccc3)n2)ccn1 [Compound 232, 4-(2-phenoxypyrimidin-4-yl)pyridin-2-ol]
- IC50 [1]: 10 to 100 µM
- IC50 [2]: 10 to 100 µM

SMILES: Oc1cc(-c2ncnc(Nc3ccccc3)n2)ccn1 [Compound 233, 4-(4-(phenylamino)-1,3,5-triazin-2-yl)pyridin-2-ol]
- IC50 [1]: 1 to 10 µM
- IC50 [2]: 1 to 10 µM

SMILES: COc1cc(-c2ccnc(Sc3ccccc3)n2)ccn1 [Compound 234, 4-(2-methoxypyridin-4-yl)-2-(phenylthio)pyrimidine]
- IC50 [1]: 0.2 to 1 µM
- IC50 [2]: 0.2 to 1 µM

SMILES: COc1cc(-c2ccnc(Oc3ccccc3)n2)ccn1 [Compound 235, 4-(2-methoxypyridin-4-yl)-2-phenoxypyrimidine]
- IC50 [1]: 10 to 100 µM
- IC50 [2]: 10 to 100 µM
